Residues, ends and D or L forms follow the SMILES beside them.
Experiments:
[1] = system: acute ischemic stroke; experiment: ESCAPE-NA1 trial: treatment emergent serious adverse events; format: in vivo, human
Description: The primary outcome was good outcome as defined by a score of 0-2 on the modified Rankin scale (mRS) (range, 0 [no symptoms] to 6 [death]) for the assessment of neurologic functional disability^2 assessed in person or, if an in-person visit was not possible, by telephone, at 90 days after randomization by personnel certified in the scoring of the mRS. Secondary efficacy outcomes were neurological outcome as defined by the NIHSS of 0-2, functional independence in activities of daily living as defined by a Barthel Index score of ≥95, excellent functional outcome as defined by a score of 0-1 on the mRS and mortality rates. Tertiary outcomes included assessments of stroke volumes on 24-hour imaging (MR or CT brain). Prespecified safety outcomes were all serious adverse events and mortality. Imaging interpretation was conducted at a central core laboratory and clinical data were verified by independent monitors. Infarct volumes were measured by summation of manual planimetric demarcation of infarct on axial imaging (636/1099 (57.9%) on CT and 463/1099 (42.1%) on MRI).
The safety population included all patients who received any amount of study drug (n=1101). There were no differences in important safety outcomes. (Table 3).

[2] = In-vivo pharmacokinetic analysis in rats; settings: rat
Experimental: Since the effect of nerinetide in the ESCAPE-NA1 trial was negated by alteplase, we next evaluated the effects of alteplase on pharmacokinetics (PK) of nerinetide in rats. Alteplase was administered at 0.9 mg/kg (human dose) and at 5.4 mg/kg (6 times the human dose) in an infusion that simulated the clinical protocol (10% bolus followed by a 60 min infusion of the remainder). Nerinetide was administered as an intravenous bolus at the start of the alteplase infusion at 7.6 mg/kg.
The goal of these study was to evaluate nerinetide PK parameter changes when in the presence of circulating rt-PA and plasmin. Male naïve rats received an intravenous administration of either nerinetide alone, nerinetide plus rt-PA (0.9 mg/kg) or nerinetide plus rt-PA (5.4 mg/kg). Sample collection was performed pre-dose and 0 min, 5 min, 10 min, 20 min, 50 min post-dose. At each time point, approximately 300 uL of blood was sampled from each animal using a fresh syringe. Blood samples were collected in previously prepared Eppendorf tubes [30 ul of EDTA 2.5%] and centrifuged for 20 minutes to separate plasma and cell components.
Plasma samples were stored at −80° C. until analyzed.
Changes in peptide concentration were analyzed using a two-way repeated measures ANOVA, followed by the Sidak correction for multiple comparisons. The pharmacokinetic (PK) parameters of peak plasma concentration (Cmax) and the area under the plasma concentration-time curve from 0 to last measured concentration (AUC) were obtained with PKsolver Software (USA) using a non-compartmental analysis and employing a linear interpolation. For stroke studies, differences between groups were tested using a One-way ANOVA with a Tukey's correction for multiple comparisons. […] Values for animals experiencing premature death due to any reason including subarachnoid hemorrhage or hemorrhagic transformation were imputed to reflect the worst neurological score and the maximum stroke volume achieved across all animals.

[3] = target: PDZ2 domain of PSD-95 (Homo sapiens, UniProt P78352); experiment: Direct ELISA of biotinylated peptides to PSD-95 PDZ2; format: binding; settings: biotinylated peptides, triplicate; read-out: EC50, direct ELISA binding to PSD-95 PDZ2 domain
Chain of PDZ2 domain of PSD-95 (P78352 160-246 limits assumed): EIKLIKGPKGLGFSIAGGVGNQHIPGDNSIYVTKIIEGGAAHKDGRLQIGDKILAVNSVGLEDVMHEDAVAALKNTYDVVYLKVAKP
Experimental: ELISA plates were coated with 1 ug/ml PSD95PDZ2 in 50 mM bicarbonate buffer overnight at 4 C. The plate was blocked in 2%BSA in PBST (0.05%) for 2 h at room temperature. It was then incubated with biotinylated ligand (nerinetide, D-tat-L2B9c or D-Tat-L-AA) at the indicated concentrations (FIG. 4A) and incubated overnight at 4 C. After washing with PBS-T, the plate was incubated for 30 min with (1:3000) SA-HRP, washed again, and incubated with TMB solution for 10 min. The reaction was stopped with 100 ul H2504. Absorbance was determined at 450 nm with the synergy H1 reader.

[4] = PK dose-separation study in cynomolgus macaques; format: in vivo, cynomolgus macaques (Macaca fascicularis); settings: macaque
Experimental: We conducted further PK studies to probe the necessary dose-separation interval to mitigate degradation. These studies were conducted in cynomolgus macaques (Macaca fascicularis) to maximize their relevance to humans. Nerinetide was given as a 10-minute intravenous infusion at a dose of 2.6 mg/kg. This dosing regimen was neuroprotective in macaques exposed to stroke by LVO (Cook et al., Nature 483, 213-217 (2012)) and was used in both the Phase 2 ENACT trial (Lancet Neurol 11, 942-950 (2012)) and the ESCAPE-NA1 trial (Lancet 395, 878-887 (2020)). We examined the scenarios in which alteplase administration was started simultaneously with the nerinetide infusion start, at the end of the 10-minute nerinetide infusion, or 10 minutes after the end of nerinetide infusion. Alteplase (1 mg/kg) was administered through a separate intravenous line as a 10% bolus, followed by an infusion of the remaining 90% over 1 hour, as per its clinical use.

[5] = nerinetide 7.6 mg/kg iv bolus with alteplase 0.9 mg/kg (human dose)
[6] = nerinetide 7.6 mg/kg iv bolus with alteplase 5.4 mg/kg
[7] = alteplase started at the end of the nerinetide infusion

## CC[C@H](C)[C@H](NC(=O)[C@H](CO)NC(=O)[C@H](CO)NC(=O)[C@H](CC(C)C)NC(=O)[C@H](CCCCN)NC(=O)[C@H](CCCN=C(N)N)NC(=O)[C@H](CCCN=C(N)N)NC(=O)[C@H](CCCN=C(N)N)NC(=O)[C@H](CCC(N)=O)NC(=O)[C@H](CCCN=C(N)N)NC(=O)[C@H](CCCN=C(N)N)NC(=O)[C@H](CCCCN)NC(=O)[C@H](CCCCN)NC(=O)[C@H](CCCN=C(N)N)NC(=O)CNC(=O)[C@@H](N)Cc1ccc(O)cc1)C(=O)N[C@@H](CCC(=O)O)C(=O)N[C@@H](CO)C(=O)N[C@@H](CC(=O)O)C(=O)N[C@H](C(=O)O)C(C)C [Nerinetide] (H-YGRKKRRQRRRKLSSIESDV-OH)
[1]; nerinetide n = 547
  Angioedema, patients number (proportion): 1 (0.2%)
  Congestive cardiac failure, patients number (proportion): 9 (1.6%)
  Deep vein thrombosis/pulmonary embolism, patients number (proportion): 3 (0.5%)
  Hives/Urticaria/Pruritis, number of patients: 0
  Hypotension, patients number (proportion): 7 (1.3%)
  Ischaemic stroke (new onset/recurrent), patients number (proportion): 18 (3.3%)
  Pneumonia, patients number (proportion): 25 (4.6%)
  Stroke-in-evolution (progression), patients number (proportion): 36 (6.6%)
  Symptomatic ICH, patients number (proportion): 19 (3.5%)
  Urinary tract infection, patients number (proportion): 8 (1.5%)
[1]; nerinetide vs placebo
  Angioedema, RR (95% CI) unadjusted: 1.01 (0.06-16.1)
  Any serious adverse Event, RR (95% CI) unadjusted: 0.92 (0.79-1.09)
  Congestive cardiac failure, RR (95% CI) unadjusted: 2.28 (0.71-7.36)
  Deep vein thrombosis/pulmonary embolism, RR (95% CI) unadjusted: 0.38 (0.1-1.42)
  Hypotension, RR (95% CI) unadjusted: 7.09 (0.88-57.4)
  Ischaemic stroke (new onset/recurrent), RR (95% CI) unadjusted: 0.91 (0.49-1.70)
  Pneumonia, RR (95% CI) unadjusted: 1.49 (0.81-2.73)
  Stroke-in-evolution (progression), RR (95% CI) unadjusted: 0.85 (0.55-1.30)
  Symptomatic ICH, RR (95% CI) unadjusted: 0.80 (0.44-1.45)
  Urinary tract infection, RR (95% CI) unadjusted: 1.15 (0.42-3.17)
[1]; patients treated with nerinetide
  rates of adverse events compared with placebo: no significant differences
[1]; safety population, nerinetide n = 547
  Any serious adverse Event, patients number (proportion): 181 (33.1%)
[2]; male, plasma, intravenous, 7.6 mg/kg, human equivalent concentrations
  half-life: 5 to 10 min
[2]; [5]
  change of AUC of nerinetide: non-significant reduction
  change of Cmax of nerinetide: non-significant reduction
[2]; [6]
  lowering of the mean AUC of nerinetide: 44%
  lowering of the mean Cmax of nerinetide: 49.5%
[3]
  EC50: 93 nM
[4]; alteplase 10 minutes after the end of the 10-min nerinetide infusion
  degradation of Cmax or AUC by alteplase: eliminated degradation of Cmax or AUC
[4]; [7]
  reduction in the AUC of nerinetide: 32.3%
  reduction of the Cmax of nerinetide: 23.1%
[4]; alteplase started simultaneously
  reduction in the AUC of nerinetide: 53.9%
[4]; nerinetide 2.6 mg/kg 10-minute infusion, alteplase 1 mg/kg started simultaneously
  reduction of the Cmax of nerinetide: 47.4%
